Values quoted from earlier work, collected in Sander's compilation of Henry's law constants (doi:10.1093/bja/45.3.294).

Columns and labels:
[1] = Henry solubility constant Hcp at 298.15 K (mol/(m3 Pa)); conditions: reference: Allott et al. (1973); cited value
[2] = Henry solubility constant Hcp at 310 K (mol/(m3 Pa)); conditions: reference: Allott et al. (1973); cited value

SMILES | Henry solubility constant Hcp [1] | Henry solubility constant Hcp at 310 K [2]
FC(F)OC(Cl)C(F)(F)F (stereo not given) [1-chloro-2,2,2-trifluoroethyl difluoromethyl ether] |  | 0.00024
FC(F)OC(F)(F)C(F)Cl (stereo not given) [2-chloro-1,1,2-trifluoroethyl difluoromethyl ether] |  | 0.0003
C1CC1 [cyclopropane] | 0.00011 | 
[N-]=[N+]=O [dinitrogen monoxide] | 0.00025 | 
[Xe] [xenon] | 4.5e-05 | 
[Kr] [krypton] | 2.5e-05 | 
C=C [ethene] | 4.6e-05 | 
ClC=C(Cl)Cl [trichloroethene] | 0.0011 | 
CCOCC [diethyl ether] | 0.0096 | 
C=COC=C [divinyl ether] |  | 0.00054

More lines, main results first:

Henry solubility constant Hcp [1] | SMILES | Henry solubility constant Hcp at 310 K [2]
0.003 | COC(F)(F)C(Cl)Cl [2,2-dichloro-1,1-difluoro-1-methoxyethane] | 
0.00017 | FC(Br)C(F)(F)F (stereo not given) [1-bromo-1,2,2,2-tetrafluoroethane] | 
0.00055 | C=COCC(F)(F)F [(2,2,2-trifluoroethoxy)-ethene] | 
0.00053 | FC(F)(F)C(Cl)Br (stereo not given) [1-bromo-1-chloro-2,2,2-trifluoroethane] | 
0.00073 | CCCl [chloroethane] | 
